Experimental data: patent US20240409585A1, “MACROCYCLIC IMMUNOMODULATORS” (priority 2021, published 2024)
Bridge positions count the residues as written; N and C are the ends. Square brackets hold non-standard residues; d marks the D form. Peptide text beside a SMILES is read from it. Bip = N[C@@H](Cc1ccc(-c2ccccc2)cc1)C(=O)O; Cit = NC(=O)NCCC[C@H](N)C(=O)O; NMeA = CN[C@@H](C)C(=O)O; Orn = NCCC[C@H](N)C(=O)O; Dab = NCC[C@H](N)C(=O)O

Each molecule was assayed against T1, PE-labeled human PD-L1-Ig binding to Jurkat cell line over-expressing human PD-1 (Jurkat-PD-1) (Homo sapiens, UniProt Q15116) (assay: Jurkat-PD-1 Cell Binding High-Content Screening Assay (CBA): Method 1). Conditions: Jurkat-hPD-1 cells, PE-labeled PD-L1-Ig 20 nM final; read-out: Jurkat HPDL1 PD1 IC50 (uM) (Method 1).
T1 construct: expressed in transfected cells; host or cells: Jurkat
T1 sequence (Q15116 25-288): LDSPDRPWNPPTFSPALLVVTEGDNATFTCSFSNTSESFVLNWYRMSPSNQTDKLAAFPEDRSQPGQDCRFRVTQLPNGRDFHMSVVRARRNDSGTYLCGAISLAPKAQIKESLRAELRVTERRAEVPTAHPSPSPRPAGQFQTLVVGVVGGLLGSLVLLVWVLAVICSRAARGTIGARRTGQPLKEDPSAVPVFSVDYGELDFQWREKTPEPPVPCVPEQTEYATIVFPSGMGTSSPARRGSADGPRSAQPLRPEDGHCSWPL

| IC50 [µM] | SMILES |
| --- | --- |
| 0.03 | CC(C)C[C@@H]1NC(=O)[C@H](CCN)NC(=O)[C@@H](CC(C)C)NC(=O)[C@H](C)N(C)C(=O)[C@H](CCC(=O)O)NC(=O)[C@H](Cc2ccc(-c3ccccc3)cc2)NC(=O)[C@H](C(C)C)NC(=O)[C@H](Cc2c[nH]c3ccccc23)NC(=O)[C@H](CC(=O)O)NC(=O)[C@H](Cc2ccc(O)cc2)NC(=O)[C@H](CC(N)=O)NC(=O)CSC[C@@H](C(=O)N[C@@H](C)C(N)=O)NC(=O)[C@H](CCCN)NC(=O)[C@H](C(C)C)NC1=O [Compound 1238] ({CH2CO}-NYDWV[Bip]E[NMeA][dL][Dab]LV[Orn]CA-NH2; thioether N-14) |
| 0.08 | CC(C)C[C@@H]1NC(=O)[C@H](CCCN)NC(=O)[C@@H](CC(C)C)NC(=O)[C@H](C)N(C)C(=O)[C@H](CCC(=O)O)NC(=O)[C@H](Cc2ccc(-c3ccccc3)cc2)NC(=O)[C@H](C(C)C)NC(=O)[C@H](Cc2c[nH]c3ccccc23)NC(=O)[C@H](CC(=O)O)NC(=O)[C@H](Cc2ccc(O)cc2)NC(=O)[C@H](CC(N)=O)NC(=O)CSC[C@@H](C(=O)N[C@@H](C)C(N)=O)NC(=O)[C@H]([C@@H](C)O)NC(=O)[C@H](C(C)C)NC1=O [Compound 1239] ({CH2CO}-NYDWV[Bip]E[NMeA][dL][Orn]LVTCA-NH2; thioether N-14) |
| 0.04 | CC(C)C[C@@H]1NC(=O)[C@H](CCCN)NC(=O)[C@@H](CC(C)C)NC(=O)[C@H](C)N(C)C(=O)[C@H](CCC(=O)O)NC(=O)[C@H](Cc2ccc(-c3ccccc3)cc2)NC(=O)[C@H](C(C)C)NC(=O)[C@H](Cc2c[nH]c3ccccc23)NC(=O)[C@H](CC(=O)O)NC(=O)[C@H](Cc2ccc(O)cc2)NC(=O)[C@H](CC(N)=O)NC(=O)CSC[C@@H](C(=O)N[C@@H](C)C(N)=O)NC(=O)[C@H](CO)NC(=O)[C@H](C(C)C)NC1=O [Compound 1240] ({CH2CO}-NYDWV[Bip]E[NMeA][dL][Orn]LVSCA-NH2; thioether N-14) |
| 0.02 | CC(C)C[C@@H]1NC(=O)[C@H](CCCN)NC(=O)[C@@H](CC(C)C)NC(=O)[C@H](C)N(C)C(=O)[C@H](CCCN)NC(=O)[C@H](Cc2ccc(-c3ccccc3)cc2)NC(=O)[C@H](C(C)C)NC(=O)[C@H](Cc2c[nH]c3ccccc23)NC(=O)[C@H](CC(=O)O)NC(=O)[C@H](Cc2ccc(O)cc2)NC(=O)[C@H](CC(N)=O)NC(=O)CSC[C@@H](C(=O)N[C@@H](C)C(N)=O)NC(=O)[C@H]([C@@H](C)O)NC(=O)[C@H](C(C)C)NC1=O [Compound 1241] ({CH2CO}-NYDWV[Bip][Orn][NMeA][dL][Orn]LVTCA-NH2; thioether N-14) |
| 0.09 | CC(C)C[C@@H]1NC(=O)[C@H](CCN)NC(=O)[C@@H](CC(C)C)NC(=O)[C@H](C)N(C)C(=O)[C@H](CCCNC(=N)N)NC(=O)[C@H](Cc2ccc(-c3ccccc3)cc2)NC(=O)[C@H](C(C)C)NC(=O)[C@H](Cc2c[nH]c3ccccc23)NC(=O)[C@H](CC(=O)O)NC(=O)[C@H](Cc2ccc(O)cc2)NC(=O)[C@H](CC(N)=O)NC(=O)CSC[C@@H](C(=O)N[C@@H](C)C(N)=O)NC(=O)[C@H](CCCN)NC(=O)[C@H](C(C)C)NC1=O [Compound 1242] ({CH2CO}-NYDWV[Bip]R[NMeA][dL][Dab]LV[Orn]CA-NH2; thioether N-14) |
| 0.01 | CC(C)C[C@@H]1NC(=O)[C@H](CCCN)NC(=O)[C@@H](CC(C)C)NC(=O)[C@H](C)N(C)C(=O)[C@H](C(C)C)NC(=O)[C@H](Cc2ccc(-c3ccccc3)cc2)NC(=O)[C@H](C(C)C)NC(=O)[C@H](Cc2c[nH]c3ccccc23)NC(=O)[C@H](CC(=O)O)NC(=O)[C@H](Cc2ccc(O)cc2)NC(=O)[C@H](CC(N)=O)NC(=O)CSC[C@@H](C(=O)N[C@@H](C)C(N)=O)NC(=O)[C@H]([C@@H](C)O)NC(=O)[C@H](C(C)C)NC1=O [Compound 1243] ({CH2CO}-NYDWV[Bip]V[NMeA][dL][Orn]LVTCA-NH2; thioether N-14) |
| 0.04 | CC(C)C[C@@H]1NC(=O)[C@H](CCCNC(=N)N)NC(=O)[C@@H](CC(C)C)NC(=O)[C@H](C)N(C)C(=O)[C@H](CCCNC(=N)N)NC(=O)[C@H](Cc2ccc(-c3ccccc3)cc2)NC(=O)[C@H](C(C)C)NC(=O)[C@H](Cc2c[nH]c3ccccc23)NC(=O)[C@H](CC(=O)O)NC(=O)[C@H](Cc2ccc(O)cc2)NC(=O)[C@H](CC(N)=O)NC(=O)CSC[C@@H](C(=O)NCC(N)=O)NC(=O)[C@H]([C@@H](C)O)NC(=O)[C@H](C(C)C)NC1=O [Compound 1244] ({CH2CO}-NYDWV[Bip]R[NMeA][dL]RLVTCG-NH2; thioether N-14) |
| 0.1 | CC(C)C[C@@H]1NC(=O)[C@H](CC(N)=O)NC(=O)[C@@H](CC(C)C)NC(=O)[C@H](C)N(C)C(=O)[C@H](CCCNC(=N)N)NC(=O)[C@H](Cc2ccc(-c3ccccc3)cc2)NC(=O)[C@H](C(C)C)NC(=O)[C@H](Cc2c[nH]c3ccccc23)NC(=O)[C@H](CC(=O)O)NC(=O)[C@H](Cc2ccc(O)cc2)NC(=O)[C@H](CC(N)=O)NC(=O)CSC[C@@H](C(=O)N[C@@H](C)C(N)=O)NC(=O)[C@H]([C@@H](C)O)NC(=O)[C@H](C(C)C)NC1=O [Compound 1245] ({CH2CO}-NYDWV[Bip]R[NMeA][dL]NLVTCA-NH2; thioether N-14) |
| 0.05 | CC(C)C[C@@H]1NC(=O)[C@H](CCCNC(=N)N)NC(=O)[C@@H](CC(C)C)NC(=O)[C@H](C)N(C)C(=O)[C@H](CCCNC(N)=O)NC(=O)[C@H](Cc2ccc(-c3ccccc3)cc2)NC(=O)[C@H](C(C)C)NC(=O)[C@H](Cc2c[nH]c3ccccc23)NC(=O)[C@H](CC(=O)O)NC(=O)[C@H](Cc2ccc(O)cc2)NC(=O)[C@H](CC(N)=O)NC(=O)CSC[C@@H](C(=O)NCC(N)=O)NC(=O)[C@H](CO)NC(=O)[C@H](C(C)C)NC1=O [Compound 1246] ({CH2CO}-NYDWV[Bip][Cit][NMeA][dL]RLVSCG-NH2; thioether N-14) |
| 0.06 | CC(C)C[C@@H]1NC(=O)[C@H](CCN)NC(=O)[C@@H](CC(C)C)NC(=O)[C@H](C)N(C)C(=O)[C@H](CCCNC(=N)N)NC(=O)[C@H](Cc2ccc(-c3ccccc3)cc2)NC(=O)[C@H](C(C)C)NC(=O)[C@H](Cc2c[nH]c3ccccc23)NC(=O)[C@H](CC(=O)O)NC(=O)[C@H](Cc2ccc(O)cc2)NC(=O)[C@H](CC(N)=O)NC(=O)CSC[C@@H](C(=O)NCC(N)=O)NC(=O)[C@H](CO)NC(=O)[C@H](C(C)C)NC1=O [Compound 1247] ({CH2CO}-NYDWV[Bip]R[NMeA][dL][Dab]LVSCG-NH2; thioether N-14) |
| 0.07 | CC(C)C[C@@H]1NC(=O)[C@H](CCN)NC(=O)[C@@H](CC(C)C)NC(=O)[C@H](C)N(C)C(=O)[C@H](CCC(=O)O)NC(=O)[C@H](Cc2ccc(-c3ccccc3)cc2)NC(=O)[C@H](C(C)C)NC(=O)[C@H](Cc2c[nH]c3ccccc23)NC(=O)[C@H](CC(=O)O)NC(=O)[C@H](Cc2ccc(O)cc2)NC(=O)[C@H](CC(N)=O)NC(=O)CSC[C@@H](C(=O)N[C@@H](C)C(N)=O)NC(=O)[C@H](CO)NC(=O)[C@H](C(C)C)NC1=O [Compound 1248] ({CH2CO}-NYDWV[Bip]E[NMeA][dL][Dab]LVSCA-NH2; thioether N-14) |
| 0.06 | CC(C)C[C@@H]1NC(=O)[C@H](CCN)NC(=O)[C@@H](CC(C)C)NC(=O)[C@H](C)N(C)C(=O)[C@H](CCCNC(=N)N)NC(=O)[C@H](Cc2ccc(-c3ccccc3)cc2)NC(=O)[C@H](C(C)C)NC(=O)[C@H](Cc2c[nH]c3ccccc23)NC(=O)[C@H](CC(=O)O)NC(=O)[C@H](Cc2ccc(O)cc2)NC(=O)[C@H](CC(N)=O)NC(=O)CSC[C@@H](C(=O)NCC(N)=O)NC(=O)[C@H]([C@@H](C)O)NC(=O)[C@H](C(C)C)NC1=O [Compound 1249] ({CH2CO}-NYDWV[Bip]R[NMeA][dL][Dab]LVTCG-NH2; thioether N-14) |
| 0.07 | CC(C)C[C@@H]1NC(=O)[C@H](CCCNC(=N)N)NC(=O)[C@@H](CC(C)C)NC(=O)[C@H](C)N(C)C(=O)[C@H](CCC(=O)O)NC(=O)[C@H](Cc2ccc(-c3ccccc3)cc2)NC(=O)[C@H](C(C)C)NC(=O)[C@H](Cc2c[nH]c3ccccc23)NC(=O)[C@H](CC(=O)O)NC(=O)[C@H](Cc2ccc(O)cc2)NC(=O)[C@H](CC(N)=O)NC(=O)CSC[C@@H](C(=O)N[C@@H](C)C(N)=O)NC(=O)[C@H](CCCN)NC(=O)[C@H](C(C)C)NC1=O [Compound 1250] ({CH2CO}-NYDWV[Bip]E[NMeA][dL]RLV[Orn]CA-NH2; thioether N-14) |
| 0.04 | CC(C)C[C@@H]1NC(=O)[C@H](CCCN)NC(=O)[C@@H](CC(C)C)NC(=O)[C@H](C)N(C)C(=O)[C@H](CCCN)NC(=O)[C@H](Cc2ccc(-c3ccccc3)cc2)NC(=O)[C@H](C(C)C)NC(=O)[C@H](Cc2c[nH]c3ccccc23)NC(=O)[C@H](CC(=O)O)NC(=O)[C@H](Cc2ccc(O)cc2)NC(=O)[C@H](CC(N)=O)NC(=O)CSC[C@@H](C(=O)N[C@@H](C)C(N)=O)NC(=O)[C@H](CO)NC(=O)[C@H](C(C)C)NC1=O [Compound 1251] ({CH2CO}-NYDWV[Bip][Orn][NMeA][dL][Orn]LVSCA-NH2; thioether N-14) |
| 0.09 | CC(C)C[C@@H]1NC(=O)[C@H](CCCNC(=N)N)NC(=O)[C@@H](CC(C)C)NC(=O)[C@H](C)N(C)C(=O)[C@H](CCCNC(=N)N)NC(=O)[C@H](Cc2ccc(-c3ccccc3)cc2)NC(=O)[C@H](C(C)C)NC(=O)[C@H](Cc2c[nH]c3ccccc23)NC(=O)[C@H](CC(=O)O)NC(=O)[C@H](Cc2ccc(O)cc2)NC(=O)[C@H](CC(N)=O)NC(=O)CSC[C@@H](C(=O)N[C@@H](C)C(N)=O)NC(=O)[C@H](CCCN)NC(=O)[C@H](C(C)C)NC1=O [Compound 1252] ({CH2CO}-NYDWV[Bip]R[NMeA][dL]RLV[Orn]CA-NH2; thioether N-14) |
| 0.03 | CC(C)C[C@@H]1NC(=O)[C@H](CCCNC(=N)N)NC(=O)[C@@H](CC(C)C)NC(=O)[C@H](C)N(C)C(=O)[C@H](CCCNC(=N)N)NC(=O)[C@H](Cc2ccc(-c3ccccc3)cc2)NC(=O)[C@H](C(C)C)NC(=O)[C@H](Cc2c[nH]c3ccccc23)NC(=O)[C@H](CC(=O)O)NC(=O)[C@H](Cc2ccc(O)cc2)NC(=O)[C@H](CC(N)=O)NC(=O)CSC[C@@H](C(=O)NCC(N)=O)NC(=O)[C@H](CO)NC(=O)[C@H](C(C)C)NC1=O [Compound 1253] ({CH2CO}-NYDWV[Bip]R[NMeA][dL]RLVSCG-NH2; thioether N-14) |
